Results taken from PMC6934184, “Selective DNA-PKcs inhibition extends the therapeutic index of localized radiotherapy and chemotherapy” (The Journal of Clinical Investigation, 2019).
Several values for one entry are separate records, joined by “and”; a condition that tells them apart may be missing. Equal entries are not always repeated. Each block holds one compound with its values, some of them ahead of it.

Tests used:
SJSA-1 tumor xenografts = assay: subcutaneous SJSA-1 xenograft with parenteral etoposide; type: in vivo, CD-1 nude mice; conditions: etoposide 5 mg/kg i.p., 5 consecutive days
Procedure: Combining systemic administration of etoposide + NU5455 in vivo
SJSA1 cells (1 x 10^7 cells/mouse in 50 µl, 50% v/v Matrigel) were implanted s.c. into the right flank of female CD-1 nude mice. When tumor volumes reached 103-121 mm3 mice were treated daily, for five consecutive days, with NU5455 (30 mg/kg or 100 mg/kg once -daily p.o. in NMP:Encapsin (30% aq):PEG4000 (1:6:3 v/v/v) ) or vehicle, followed immediately with etoposide (5 mg/kg i.p. in saline). Body weight and tumor volume measurements were taken daily during treatment and three times per week post -treatment. Tumor volume was calculated from two-dimensional electronic caliper measurements (Mitutoyo) using the equation ‘width2 x length/2’, where width was the smaller side, and length the longer dimension of the tumor. Mice were humanely killed when; (i) an adverse effect on clinical condition was evident, (ii) tumor bilateral measurements reached 10 mm x 10 mm, (iii) a tumor measurement in any di mension reached 15 mm, or (iv) at study termination. […]

[1] = tested on: NHEJ-mediated DSB repair in HEK293T cells; assay: NHEJ plasmid repair assay; type: cell-based, Human; conditions: 10 µM; 24 hours; AfeI or ScaI linearized plasmid
Procedure: The ability of NU5455 to impair the nonhomologous end joining (NHEJ) ability of cells was assessed using a modified version of a DNA repair assay developed by Nagel et al. ([52]), which measures the repair of a plasmid encoding blue fluorescent protein (BFP) and GFP linearized by either an ScaI or an AfeI restriction digestion. Full experimental details are given in Supplemental Methods.
(§1) Membranes were then washed in TBST and incubated with HRP-conjugated goat anti-mouse or anti-rabbit antibodies (P0447 and P0448 respectively, Dako) in 5% (w/v) milk/TBST at room temperature for 1-2 hours. Conjugates were detected using Clarity Western ECL Substrate (BioRad) and chemiluminescence imaged using the Fuji LAS-3000 Luminescent Image Analyzer System (Fujifilm).
Densitometry analysis was performed using AIDA Image Analyzer software (Raytest). The intensity of all bands was determined following a background subtraction, and the level of pDNA-PKcs stimulation determined by subtracting basal unstimulated pDNA-PKcs Ser2056 levels. pDNA-PKcs Ser2056 band intensity was calculated relative to total DNA-PKcs band intensity, and is given as percentage expression relative to irradiated, DMSO-treated cells. […]
violet laser with 440/50 emission filter to detect blue fluorescence using the VL1 channel. […]
Data were analyzed by FCS Express 6 Flow Research Edition (De Novo Software). […]

MCF7 cells = assay: clonogenic survival with 2 Gy IR, DNA repair inhibitors; type: cell-based, Human; conditions: 1 h before and 24 h after IR
Procedure: Cells were washed in phosphate-buffered saline (PBS), trypsinized and counted. Cells were then reseeded at a known density in drug-free medium into 10 cm dishes (100 - 10 000 cells/dish) and incubated for 8-21 days. Colonies were fixed using Carnoys fixture (75% v/v methanol, 25% v/v acetic acid, Fisher), stained with crystal violet (0.4% w/v in water), and counted using a ColCount automated colony counter (Oxford Optronics). Cell survival was calculated as a percentage of the untreated control.
Alternatively, exponentially growing MCF7 cells were exposed to a range of concentrations of the PARP inhibitor rucaparib, the ATM inhibitor KU55933, the ATR inhibitor VE-821 or NU5455 for 1 hour prior to irradiation with 2 Gy. Cells were then incubated in the continued presence of the DNA repair inhibitors for a further 24 hours prior to replating. […]

DNA-PK = DNA-PK (Homo sapiens, UniProt P78527); assay: radiation-induced phospho-DNA-PK Ser2056 in MCF7 cells, Western blot; type: cell-based; parameters: endogenous in cells; host or cells: MCF7; conditions: 1 h pretreatment, 30 min after 10 Gy IR, read-out: IC50, radiation-induced activation of DNA-PK (phospho–DNA-PK Ser2056)
Procedure: (§2) Exponentially growing MCF7 cells were exposed to a range of concentrations of NU5455 and NU7441 (0.03–10 μM) for 1 hour. To assess the ability of NU5455 and NU7441 to inhibit autophosphorylation of DNA-PKcs at Ser2056, cells were treated with 10 Gy irradiation and incubated for 30 minutes. Alternatively, to investigate the effects of NU5455 and NU7441 against PI3K-dependent phosphorylation of AKT at Ser473, cells were treated with 50 ng/mL insulin-like growth factor-1 (IGF-1; Invitrogen) for 30 minutes. Cell lysates were prepared for the detection of p–DNA-PKcs Ser2056 and total DNA-PKcs, or p–AKT Ser473 and total AKT, respectively, using Western blotting. […]
(§3) Protein lysates were quantified using the Pierce BCA Protein Assay (ThermoFisher). […]
as §1, with “(Fujifilm). […]” for “(Fujifilm).”
(§4) Alternatively, basal pAKT Ser473 levels were subtracted from all other pAKT bands, and pAKT band intensity calculated relative to total AKT expression and given as a percentage relative to IGF-1 stimulated, DMSO-treated cells. […]

PI3K = assay: IGF-1-stimulated phospho-AKT Ser473 in MCF7 cells, Western blot; type: cell-based, Human; conditions: 1 μM, 50 ng/mL IGF-1, 30 min
Procedure: as §2, §3
as §1, with “(Fujifilm). […]” for “(Fujifilm).”
as §4

SJSA-1 = assay: growth inhibition, 72 hour incubation; type: cell-based, Human; conditions: read-out: Nutlin-3a GI50, mean with standard deviation
Procedure: SJSA-1 Human WT 1.9 ± 0.19 COSMIC […]
(§5) Supplemental Table 3. TP53 status of cell lines used.
(§6) incubation with the compound (see Supplemental Methods). GI50 values shown represent either individual determinations or the
(§7) References: (1) Melnikova VO et al., Oncogene, […]

M2-10B4 = assay: growth inhibition, 72 hour incubation; type: cell-based, Mouse; conditions: read-out: Nutlin-3a GI50, mean with standard deviation
Procedure: as §5, §6, §7

B16F10 = assay: growth inhibition, 72 hour incubation; type: cell-based, Mouse; conditions: read-out: Nutlin-3a GI50, mean with standard deviation
Procedure: as §5, §6, §7

NIH3T3 = assay: growth inhibition, 72 hour incubation; type: cell-based, Mouse; conditions: read-out: Nutlin-3a GI50, mean with standard deviation
Procedure: as §5, §6, §7

4T1 = assay: growth inhibition, 72 hour incubation; type: cell-based, Mouse; conditions: read-out: Nutlin-3a GI50, individual determinations
Procedure: as §5, §6, §7

Huh7 = assay: growth inhibition, 72 hour incubation; type: cell-based, Human; conditions: read-out: Nutlin-3a GI50, individual determinations
Procedure: as §5, §6, §7

Hep3B = assay: growth inhibition, 72 hour incubation; type: cell-based, Human; conditions: read-out: Nutlin-3a GI50, individual determinations
Procedure: as §5, §6, §7

HCT116 = assay: growth inhibition, 72 hour incubation; type: cell-based, Human; conditions: read-out: Nutlin-3a GI50, mean with standard deviation
Procedure: as §5, §6, §7

MCF10a = assay: growth inhibition, 72 hour incubation; type: cell-based, Human; conditions: read-out: Nutlin-3a GI50, mean with standard deviation
Procedure: as §5, §6, §7

NHDF = assay: growth inhibition, 72 hour incubation; type: cell-based, Human; conditions: read-out: Nutlin-3a GI50, individual determination
Procedure: as §5, §6, §7

Calu6 = assay: growth inhibition, 72 hour incubation; type: cell-based, Human; conditions: read-out: Nutlin-3a GI50, individual determinations
Procedure: as §5, §6, §7

SN40R2 = assay: growth inhibition, 72 hour incubation; type: cell-based, Human; conditions: read-out: Nutlin-3a GI50, individual determination
Procedure: as §5, §6, §7

A549 = assay: growth inhibition, 72 hour incubation; type: cell-based, Human; conditions: read-out: Nutlin-3a GI50, individual determinations
Procedure: as §5, §6, §7

HepG2 = assay: growth inhibition, 72 hour incubation; type: cell-based, Human; conditions: read-out: Nutlin-3a GI50, mean with standard deviation
Procedure: HepG2 Human WT 1.0 ± 0.18 COSMIC […]
as §5, §6, §7

MCF7 = assay: growth inhibition, 72 hour incubation; type: cell-based, Human; conditions: read-out: Nutlin-3a GI50, mean with standard deviation
Procedure: MCF7 Human WT 2.3 ± 0.20 COSMIC […]
as §5, §6, §7

Structure (SMILES): COc1cc([C@@H]2c3cc4c(cc3[C@@H](O[C@@H]3O[C@@H]5CO[C@@H](C)O[C@H]5[C@H](O)[C@H]3O)[C@H]3COC(=O)[C@H]23)OCO4)cc(OC)c1O [Etoposide, etoposide, reference compound]
antitumor effect, monotherapy (SJSA-1 tumor xenografts): relatively marginal antitumor effect

Structure (SMILES): O=c1cc(-c2cccc3c2Sc2ccccc2S3)oc(N2CCOCC2)c1 [KU55933, reference compound]
repair of DNA-DSBs (NHEJ plasmid repair) [1]: NU5455 but not the ATM inhibitor KU55933 inhibits NHEJ-mediated DSB repair
SER (sensitization enhancement ratio), enhancement of 2 Gy IR clonogenic cell killing (MCF7 cells; at 10 μM): 2.3 fold

IC50 (DNA-PK): 405 nM
Structure (SMILES): O=c1cc(N2CCOCC2)oc2c(-c3cccc4c3sc3ccccc34)cccc12 [NU7441, reference compound]
inhibition of IGF/PI3K-stimulated signaling response (phospho–AKT Ser473) (PI3K): 40% ± 7%

GI50 (SJSA-1): 1900 ± 190 nM
GI50 (B16F10): 5700 ± 1800 nM
GI50 (4T1): > 30000 nM
GI50 (Huh7): > 10000 nM and 27000 nM
GI50 (Hep3B): > 30000 nM
GI50 (HCT116): 2100 ± 710 nM
GI50 (Calu6): > 30000 nM
GI50 (A549): 2400 nM and 2900 nM
GI50 (HepG2): 1000 ± 180 nM
GI50 (MCF7): 2300 ± 200 nM
Structure (SMILES): COc1ccc(C2=N[C@@H](c3ccc(Cl)cc3)[C@@H](c3ccc(Cl)cc3)N2C(=O)N2CCNC(=O)C2)c(OC(C)C)c1 [Nutlin-3a]
GI50 (M2-10B4): 3300 ± 640 nM
GI50 (NIH3T3): 4000 ± 1100 nM
GI50 (MCF10a): 5100 ± 2800 nM
GI50 (NHDF): 2700 nM
GI50 (SN40R2): > 30000 nM

Structure (SMILES): CS(=O)(=O)c1ccc(-c2cnc(N)c(C(=O)Nc3ccccc3)n2)cc1 [VE-821]
SER (sensitization enhancement ratio), enhancement of 2 Gy IR clonogenic cell killing (MCF7 cells; at 1 μM): 1.6 fold

Structure (SMILES): CNCc1ccc(-c2[nH]c3cc(F)cc4c3c2CCNC4=O)cc1 [rucaparib]
SER (sensitization enhancement ratio), enhancement of 2 Gy IR clonogenic cell killing (MCF7 cells; at 1 μM): 1.4 fold
